Results published in patent publication US20030118985A1, “Mouse monoclonal antibody (5-21-3) to human immunodeficiency virus gp41 protein” (priority 1997, published 2003).

Tests used:
[1] = system: binding of antibody 5-21-3 to rp41; experiment: Binding inhibition assay: peptides inhibit binding of 5-21-3 to rp41; set-up: species or system HIV I; conditions: for Molar Ratio at 50% inhibition of 5-21-3 binding: mean of two experiments, 0.4 pmol 5-21-3 IgG per well
Protocol: Additional evidence for the conformationl nature of the 5-21-3 epitope was obtained using binding inhibition studies, in which synthetic peptides were ranked for their ability to inhibit binding of 5-21-3 to rp41. First, the Fab dimer of an anti-gp41 monoclonal antibody was prepared by conventional methods (Goding et al., supra). Then 100 ul of a 1 mg/ml solution of the Fab dimer in bicarbonate buffer (pH 9.6) was coated onto Immulon II microtiter plates for 1 hr at 37° C. After washing with PBS containing 0.05% Tween 20, the plates were overcoated with 200 ul of 1.0% ovalbumin in bicarbonate buffer (pH 9.6) for 1 hr at 30° C. After washing, 100 ul of rp41 enriched E. coli lysate (as described in Example 3), diluted appropriately in PBS containing 0.05% Tween 20, were allowed to bind to the Fab dimer for 2 hr at 30° C. The plates were washed and stored at 4° C.
Intact monoclonal antibody 5-21-3 IgG (purified from tissue culture fluid supporting growth of the cloned cell line 5-21-3) was titrated against the bound rp41 on the plate, and an antibody concentration was selected which yielded an A492 value of 2.0-3.0. Usually, 0.4 pmol (0.06 ug) of 5-21-3 IgG per microtiter well was employed in these assays. Stock solutions of 5-21-3 IgG were prepared in PBS containing 0.1% Triton X-100 and 0.1% SDS. Dilutions of synthetic peptides were made in the same buffer (SDS was included in these experiments to keep peptides soluble at high concentrations).
The binding inhibition assay was performed by combining 0.15 ml of 1.2 ug/ml 5-21-3 antibody stock solution with 0.15 ml of peptide at a selected peptide concentration, and incubating the reaction mixture 1 hr at room temp. Then 0.1 ml aliquots of each reaction mixture were added to each of two wells in the microtiter tray. After a 1 hr incubation at room temp., the plates were washed, and HRPO conjugated Goat anti-mouse IgG Fc was added for 1 hr at room temp. The plates were washed, and addition of OPD for color development identified the relative amounts of 5-21-3 bound to rp41 in the microtiter wells. The reaction was stopped by addition of 100 ul of 1N H2SO4, and the plates were read on a Dynatech II microtiter plate reader.

[2] = system: monoclonal antibody 5-21-3; experiment: Immunoprecipitation of [125I] synthetic peptides by 5-21-3; type: binding, mouse; conditions: for SPECIFIC PRECIPITATION (CPM) by 5-21-3 / x-fold increase of specific over non-specific precipitation, 5-21-3: 5-21-3 10 μg/0.2 ml, second antibody precipitation; for SPECIFIC PRECIPITATION (CPM) by 5-21-3: PBS, 0.1% Triton X-100, 1.0% BSA, carrier serum; for x-fold increase of specific over non-specific precipitation, 5-21-3: vs normal mouse IgG
Protocol: (§1) Synthetic peptides were radiolabeled with ^125I (Amersham) by the chloramine T method (N. M. Hunter, “Radioimmunoassay” in D. M. Weir, Ed., Handbook of Experimental Immunology, [Blackwell Scientific Publications, 1973]). Generally, 2-6 ul of 100 mCi/ml ^125I were added to 10-50 ug of peptide in PBS, pH 7.4. Approximately 10 ug of freshly prepared (1 mg/ml in PBS) chloramine T were added to the mixture maintained at 4° C. After 5 min., [^125I]peptide was separated from free ^125I by passage of the reaction mixture through a 3 ml (bed volume) column of Biogel P-6 or P-2, as required. Fractions (200 ul each) containing [^125I]peptide were pooled and diluted into PBS containing 20% fetal calf serum. Rough estimations of ^125I cpm bound to peptide were made by acid precipitation. An aliquot of labeled peptide was diluted into 1 ml of ice cold 50% trichloroacetic acid (TCA) overlaying a 0.45 um filter (made of mixed cellulose esters) set on a scintered glass filter connected to a vacuum apparatus. Precipitated protein was fixed onto the filter by application of vacuum, and filters were washed with ice-cold 50% TCA. Background cpm adhering non-specifically to the filter were estimated by repeating the procedure using a non-precipitating buffer. Amounts of peptide, ^125I, chloramine T, and composition of column eluting buffer were subject to change depending on conditions required to maintain solubility of each peptide.
(§2) Synthetic peptides radiolabeled with ^125I were diluted into PBS (pH 7.4) containing 0.1% Triton X-100 (or other detergents where indicated) and 1.0% BSA, to yield approximately 2.5-5×10^5 acid-precipitable cpm per 0.1 ml. Purified monoclonal IgG 5-21-3 and 10-15-63 were employed in the assay. Monoclonal antibodies were diluted into PBS containing 0.1% Triton X-100 (or other detergents where indicated), 1.0% BSA, and 2% normal mouse serum as a carrier immunoglobulin. Immune rabbit serum (anti-P58-130) was diluted appropriately into the same buffer except that normal rabbit serum (2%) was substituted for normal mouse serum as the carrier immunoglobulin. A reaction mixture comprising 0.1 ml [^125I] peptide (5×10^5 cpm/0.1 ml) and 0.1 ml diluted antibody was incubated 1 hr at 40° C., followed by addition of 0.1 ml of a precipitating antibody, either goat anti-mouse IgG, or goat anti-rabbit IgG, corresponding to the primary antibody. The reaction mixture was incubated 1 hr at 40° C. and then overnight at 4° C. […] Precipitation assays employing Protein A-Sepharose as the precipitating reagent were performed in a similar manner, except that normal sera were omitted from the reaction mixtures.

[3] = system: monoclonal antibody 10-15-63; experiment: Immunoprecipitation of [125I] synthetic peptides by 10-15-63; type: binding, mouse; conditions: for SPECIFIC PRECIPITATION (CPM) by 10-15-63 / x-fold increase of specific over non-specific precipitation, 10-15-63: 10-15-63 10 μg/0.2 ml, second antibody precipitation; for SPECIFIC PRECIPITATION (CPM) by 10-15-63: PBS, 0.1% Triton X-100, 1.0% BSA, carrier serum; for x-fold increase of specific over non-specific precipitation, 10-15-63: vs normal mouse IgG
Protocol: as §1, §2

[4] = system: Rabbit (R) anti-P58-130 serum; experiment: Immunoprecipitation of [125I] synthetic peptides by rabbit anti-P58-130 serum; type: binding; conditions: for SPECIFIC PRECIPITATION (CPM) by RαP58-130 / x-fold increase of specific over non-specific precipitation, RαP58-130: rabbit anti-P58-130 serum 20 ul/0.2 ml, second antibody precipitation; for x-fold increase of specific over non-specific precipitation, RαP58-130: vs normal rabbit serum
Protocol: as §1, §2

[5] = system: monoclonal antibody 5-21-3; experiment: Immuno-dot blot of synthetic peptides with 5-21-3; type: binding, mouse; conditions: 25 ug/ml 5-21-3; mild washing procedures
Text: The western Blot procedure described in Example 1 was employed for development of immuno-dot blots using synthetic peptides, except that synthetic peptides were fixed to nitrocellulose by direct application using Drummond lambda pipettes, and air dried prior to blocking with 20% fetal calf serum in PBS (pH 7.4).

Row | Substance | inhibition of 5-21-3 binding to rp41, in words [1] | Molar Ratio at 50% inhibition of 5-21-3 binding [1] | binding of [125I]peptide by 5-21-3 (immunoprecipitation), in words [2] | SPECIFIC PRECIPITATION (CPM) ([2]; 5-21-3 1.0 μg/ml final) | x-fold increase of specific over non-specific precipitation ([2]; 5-21-3 1.0 μg/ml final) | SPECIFIC PRECIPITATION (CPM) by 5-21-3 [2] | x-fold increase of specific over non-specific precipitation, 5-21-3 [2] | SPECIFIC PRECIPITATION (CPM) ([2]; 5-21-3 10.0 μg/ml final) | x-fold increase of specific over non-specific precipitation ([2]; 5-21-3 10.0 μg/ml final) | SPECIFIC PRECIPITATION (CPM) ([2]; 5-21-3 100.0 μg/ml final) | x-fold increase of specific over non-specific precipitation ([2]; 5-21-3 100.0 μg/ml final) | SPECIFIC PRECIPITATION (CPM) ([3]; 10-15-63 1.0 μg/ml final) | x-fold increase of specific over non-specific precipitation ([3]; 10-15-63 1.0 μg/ml final) | SPECIFIC PRECIPITATION (CPM) by 10-15-63 [3] [CPM] | x-fold increase of specific over non-specific precipitation, 10-15-63 [3] | SPECIFIC PRECIPITATION (CPM) ([3]; 10-15-63 10.0 μg/ml final) | x-fold increase of specific over non-specific precipitation ([3]; 10-15-63 10.0 μg/ml final) | SPECIFIC PRECIPITATION (CPM) ([3]; 10-15-63 100.0 μg/ml final) | x-fold increase of specific over non-specific precipitation ([3]; 10-15-63 100.0 μg/ml final) | SPECIFIC PRECIPITATION (CPM) by RαP58-130 [4] | further results
1 | NH2-Asp-Arg-Glu-Ile-Asn-Asn-Tyr-Thr-Ser-Leu-Ile-His-Ser-Leu-Ile-Glu-Glu -Ser-Gln-Asn-Gln-Gln-Glu-Lys-Asn-Glu-Gln-Glu-Leu-Leu-Glu-Leu-Asp-Lys-COOH (H-DREINNYTSLIHSLIEESQNQQEKNEQELLELDK-OH) [P121-154] | potent inhibitor | 1,494 pmoles peptide/pmoles 5-21-3 | recognized by 5-21-3 | 0 | (0) x-fold | 40,717 CPM | (31) x-fold | 1,113 CPM | (2.3) x-fold | 18,984 CPM | (13) x-fold | 0 | (0) x-fold | 371 | (1.3) x-fold | 0 | (0) x-fold | 0 | (0) x-fold | 310,419 CPM | fold less active than P67-154 in binding inhibition [1]: 20 fold; fold restoration of binding inhibition activity relative to P131-154 [1]: 20-65 fold; precipitation of [125I]peptide by rabbit anti-P58-130, in words [4]: strong precipitator; x-fold increase of specific over non-specific precipitation, RαP58-130 [4]: (24) x-fold; immuno-dot blot reactivity with 5-21-3 [5]: faint, diffuse reaction
2 | IHSLIEESQNQQEKNEQELLELDK [P131-154] | could not be demonstrated | >50,000 pmoles peptide/pmoles 5-21-3 | unable to bind | 0 | (0) x-fold | 970 CPM | (1.1) x-fold | 0 CPM | (0) x-fold | 0 CPM | (0) x-fold | 0 | (0) x-fold | 0 | (<1) x-fold | 0 | (0) x-fold | 112 | (1.1) x-fold | 0 CPM | 5-21-3 concentration required to demonstrate binding of the peptide ([2]; immunoprecipitation, Table 5): could not be demonstrated; x-fold increase of specific over non-specific precipitation, RαP58-130 [4]: (<1) x-fold
